One data set deals with RIPK1 (Homo sapiens (Human), UniProt Q13546). Briefly: RIPK1 ADP-Glo kinase biochemical assay. The conditions noted are these: statement in words. (In general: ADP-Glo first removes unused ATP, then detects ADP through luciferase.)
A short description of data set [1]: Brain free fraction in vitro. The format is in vitro ADME. The following applies: rodent brain in vitro. From the text: (§1) Certain embodiments of the invention provide for compound, compounds or compositions thereof to traverse the blood-brain barrier. […] Brain penetration may be assessed by evaluating brain/plasma ratio (B/P) as measured through in vivo pharmacokinetic studies in rodents and determining free fraction in rodent brain in vitro. […] Without being limited to theory, it is believed that compounds with higher brain/plasma partition ratios may be more pharmacologically active against neurological disorders. Other methods for assessing brain penetration are known to persons of ordinary skill in the art. See, for example, Liu, X. et al., J. Pharmacol. Exp. Therap., 325:349-56, 2008. […]. In this method, the passive membrane permeability (Papp) and the P-gp (P-glycoprotein) substrate efflux potential are determined using a MDCKII-MDR1 cell line as an in vitro model of the effective permeability of a compound through the BBB.
Brain free fraction is a predictive marker for assessing potential for potential therapeutics in the CNS. See, Read K. D.; Braggio S. Assessing brain free fraction in early drug discovery. Expert. Opin. Drug. Metab. Toxicol. 2010, 6, 337-344.
Determination of brain free fraction is known such that those of skill in the art could determine the brain free fraction for additional compounds disclosed herein. See, Srinivas, Nithya et al. “Clinical Pharmacokinetics and Pharmacodynamics of Drugs in the Central Nervous System.” Clinical pharmacokinetics vol. 57, 9 (2018): 1059-1074. doi:10.1007/s40262-018-0632-y.

The nature of data set [2]: Brain/plasma ratio from in vivo pharmacokinetic studies. The following applies: rodent, brain and plasma; in vivo pharmacokinetic studies in rodents; read-out: B/P ratio (brain/plasma ratio).
Excerpt: as §1

A word on the fraction unbound: it is free concentration divided by total concentration. A higher fraction unbound goes with weak binding.

Chain of RIPK1 (Q13546 whole entry, species assumed): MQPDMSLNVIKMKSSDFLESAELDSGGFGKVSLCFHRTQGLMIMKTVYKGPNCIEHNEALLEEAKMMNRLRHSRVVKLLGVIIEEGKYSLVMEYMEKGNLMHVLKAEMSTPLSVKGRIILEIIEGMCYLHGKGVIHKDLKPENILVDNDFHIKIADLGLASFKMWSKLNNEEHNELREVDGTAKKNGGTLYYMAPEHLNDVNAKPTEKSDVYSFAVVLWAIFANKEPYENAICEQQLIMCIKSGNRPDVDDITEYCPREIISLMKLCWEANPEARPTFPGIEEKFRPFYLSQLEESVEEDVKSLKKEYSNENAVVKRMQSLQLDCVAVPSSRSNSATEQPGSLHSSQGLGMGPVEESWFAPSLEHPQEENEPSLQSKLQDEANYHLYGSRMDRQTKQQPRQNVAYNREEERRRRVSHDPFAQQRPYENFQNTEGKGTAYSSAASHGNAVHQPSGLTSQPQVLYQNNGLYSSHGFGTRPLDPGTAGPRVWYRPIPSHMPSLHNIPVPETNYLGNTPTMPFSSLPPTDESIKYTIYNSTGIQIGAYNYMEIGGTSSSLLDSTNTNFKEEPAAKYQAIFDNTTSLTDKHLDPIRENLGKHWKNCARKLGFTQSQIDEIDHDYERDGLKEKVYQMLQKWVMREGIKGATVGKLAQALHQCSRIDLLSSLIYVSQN
Protocol for RIPK1: In this example, compounds of the disclosure were evaluated using a biochemical assay using the ADP-Glo™ technology.
ADP-Glo™ (Promega, Madison, Wis., USA) reagents were thawed at ambient temperature. Kinase Detection Reagent was prepared by mixing kinase detection buffer with the lyophilized kinase detection substrate.
A 3 ml 2× working stock volume of Reaction Kinase Buffer was made containing a final concentration of 100 μM DTT and 4 mM MnCl2.
Components of RIPK1 enzyme (Rigel Pharmaceuticals, South San Francisco, Calif., USA) were thawed on ice. Diluted RIPK1 was prepared in 1× Kinase Reaction Buffer (diluted from 2× buffer) to 31 ng/well.
1.0 ul of diluted compound was added to a 384 well plate in duplicate. […] The final reaction volume was 5.0 μl.
The plate was quickly centrifuged and the reaction was incubated at 30° C. for 30 minutes. Adding 5 μl of ADP-Glo™ terminated the reaction. The plate was quickly centrifuged and the reaction was incubated at room temperature for 40 minutes. Kinase Detection Reagent was then added and incubated at room temperature for 30 minutes. The relative light unit (RLU) of kinase reaction was determined by luminescent (Luminescence 0.1s) using a Wallac Victor2 Luminometer (PerkinElmer, Waltham, Mass., USA).

For `CN1C(=O)[C@@H](NC(=O)c2cc(Oc3ccccc3)ccn2)COc2cc(Br)cnc21` [Compound I-6, (S)—N-(8-Bromo-5-methyl-4-oxo-2,3,4,5-tetrahydropyrido[3,2-b][1,4]oxazepin-3-yl)-4-phenoxypicolinamide], at RIPK1, the RIP1K inhibitory activity result is given as “exhibiting RIP1K inhibitory activity”.

On to `CN1C(=O)[C@@H](NC(=O)c2cc(Oc3ccccc3)ccn2)COc2ccc(C#CC(C)(C)O)nc21` [Compound I-18, (S)—N-(7-(3-hydroxy-3-methylbut-1-yn-1-yl)-5-methyl-4-oxo-2,3,4,5-tetrahydropyrido[3,2b][1,4]oxazepin-3-yl)-4-phenoxypicolinamide], for which, in data set [1], the fraction unbound came to 0.027.

In data set [1], `CN1C(=O)[C@@H](NC(=O)c2cc(Oc3cccc(F)c3)ccn2)COc2ccc(C#CC(C)(C)O)nc21` [Compound I-21, (S)-4-(3-fluorophenoxy)-N-(7-(3-hydroxy-3-methylbut-1-yn-1-yl)-5-methyl-4-oxo-2,3,4,5-tetrahydropyrido[3,2-b][1,4]oxazepin-3-yl)picolinamide] registered a fraction unbound of 0.0219.

`CN1C(=O)[C@@H](NC(=O)c2cc(Oc3ccccc3)ccn2)COc2ccc(C#CC(O)C(F)(F)F)nc21` (stereo partly drawn) [Compound I-33, N-((3S)-5-methyl-4-oxo-7-(4,4,4-trifluoro-3-hydroxybut-1-yn-1-yl)-2,3,4,5-tetrahydropyrido[3,2-b][1,4]oxazepin-3-yl)-4-phenoxypicolinamide] registered a fraction unbound in data set [1] of 0.0057.

`CN1C(=O)[C@@H](NC(=O)c2cc(Oc3ccccc3)ccn2)COc2ccc(C#CC3COC3)nc21` [Compound I-44, (S)—N-(5-methyl-7-(oxetan-3-ylethynyl)-4-oxo-2,3,4,5-tetrahydropyrido[3,2-b][1,4]oxazepin-3-yl)-4-phenoxypicolinamide]: the Kp in data set [2] stood at 1.6. The fraction unbound in data set [1] came out at 0.017.

For `CN1C(=O)[C@@H](NC(=O)c2cc(Oc3ccccc3)ccn2)COc2ccc(C#CC(C)(N)C(F)(F)F)nc21` (stereo partly drawn) [Compound I-46, N-((3S)-7-(3-Amino-4,4,4-trifluoro-3-methylbut-1-yn-1-yl)-5-methyl-4-oxo-2,3,4,5-tetrahydropyrido[3,2-b][1,4]oxazepin-3-yl)-4-phenoxypicolinamide], in data set [1], the fraction unbound turned out to be 0.0089.

Turning to `CN1C(=O)[C@@H](NC(=O)c2cc(Oc3ccccc3)ccn2)CCc2ccc(C#CC(C)(O)C(F)(F)F)nc21` (stereo partly drawn) [Compound I-56, N-((7S)-9-Methyl-8-oxo-2-(4,4,4-trifluoro-3-hydroxy-3-methylbut-1-yn-1-yl)-6,7,8,9-tetrahydro-5H-pyrido[2,3-b]azepin-7-yl)-4-phenoxypicolinamide], in data set [1], the fraction unbound came out at 0.0093.

For `CN1C(=O)[C@@H](NC(=O)c2cc(Oc3ccccc3)ccn2)CCc2ccc(C#CC3COC3)nc21` [Compound I-58, (S)—N-(9-Methyl-2-(oxetan-3-ylethynyl)-8-oxo-6,7,8,9-tetrahydro-5H-pyrido[2,3-b]azepin-7-yl)-4-phenoxypicolinamide], in data set [2], the Kp was 0.44. This molecule returned a fraction unbound in data set [1] of 0.0184.

(Values after patent US11584758B2, “RIP1K inhibitors” (Rigel Pharmaceuticals, Inc., priority 2020, dated 2023).)
